Data reported in article PMC6270026, “Antibacterial and Herbicidal Activity of Ring-Substituted 2-Hydroxynaphthalene-1-carboxanilides” (Molecules, 2013).
pIC50: −log10 of the molar value. In brackets after ≈: the same amount, converted by molar mass. Several values for one entry are separate records, joined by “and”; a condition that tells them apart may be missing. Equal entries are not always repeated.

How the values were obtained:
[1] = tested on: photosynthetic electron transport (PET) in spinach chloroplasts; experiment: Inhibition of photosynthetic electron transport (PET) in spinach chloroplasts; assay type: biochemical, Spinacia oleracea L.; details: DCPIP photoreduction
Protocol: Chloroplasts were prepared from spinach (Spinacia oleracea L.) according to Masarovicova and Kralova. The inhibition of photosynthetic electron transport (PET) in spinach chloroplasts was determined spectrophotometrically (Genesys 6, Thermo Electron Scientific Instruments, Madison, WI, USA), using an artificial electron acceptor 2,6-dichlorophenol-indophenol (DCPIP) according to Kralova et al., and the rate of photosynthetic electron transport was monitored as a photoreduction of DCPIP. The measurements were carried out in phosphate buffer (0.02 mol/L, pH 7.2) containing sucrose (0.4 mol/L), MgCl2 (0.005 mol/L) and NaCl (0.015 mol/L). The chlorophyll content was 30 mg/L in these experiments and the samples were irradiated (~100 W/m^2 with 10 cm distance) with a halogen lamp (250 W) using a 4 cm water filter to prevent warming of the samples (suspension temperature 22 °C). The studied compounds were dissolved in DMSO due to their limited water solubility. […] The inhibitory efficiency of the studied compounds was expressed by IC50 values, i.e., by molar concentration of the compounds causing 50% decrease in the oxygen evolution rate relative to the untreated control.

[2] = Lipophilicity determination by RP-HPLC (capacity factor log k); assay type: physicochemical; details: isocratic, MeOH 60%/H2O 40%, C18
Protocol: A HPLC system Agilent 1200 equipped with DAD detector (Agilent, Santa Clara, CA, USA) was used. A chromatographic column Symmetry® C18 5 μm, 4.6 × 250 mm, Part No. WAT054275, (Waters Corp., Milford, MA, USA) was used. The HPLC separation process was monitored and evaluated by EZChrom Elite software ver. 3.3.2 (Agilent). Isocratic elution by a mixture of MeOH p.a. (60%) and H2O-HPLC Mili-Q grade (40%) as a mobile phase was used. The total flow of the column was 1.0 mL/min, injection 20 μL, column temperature 40 °C and sample temperature 10 °C. The detection wavelength 210 nm was chosen. The KI methanolic solution was used for the dead time (tD) determination. Retention times (tR) were measured in minutes. The capacity factors k were calculated according to formula k = (tR − tD)/tD, where tR is the retention time of the solute, whereas tD denotes the dead time obtained using an unretained analyte. Log k, calculated from the capacity factor k, is used as the lipophilicity index converted to log P scale.

M. smegmatis ATCC 700084 = experiment: In vitro antimycobacterial evaluation (broth dilution MIC); assay type: cell-based, Mycobacterium smegmatis; details: Mycolicibacterium smegmatis, ATCC700084, 72 h; M. smegmatis ATCC 700084, 3 days, 37 °C
M. kansasii DSM 44162 = experiment: as above; assay type: cell-based; details: Mycobacterium kansasii, DSM44162, 168 h; M. kansasii DSM 44162, 7 days, 37 °C
[3] = tested on: Mycobacterium avium subsp. paratuberculosis (CIT03); experiment: In vitro antimycobacterial evaluation (alamarBlue MIC); assay type: cell-based; details: 264 h, M. avium paratuberculosis CIT03, 11 days, 37 °C
Protocol: A well characterised clinical isolate of Mycobacterium avium subsp. paratuberculosis (CIT03) was grown in Middlebrook broth (MB), supplemented with Oleic-Albumin-Dextrose-Catalase supplement (OADC, Becton, Dickinson & Comp., Franklin Lakes, NJ, USA) and mycobactin J (2 µg/mL). Identification of this isolate was performed using biochemical and molecular protocols. At log phase growth, a culture sample (10 mL) was centrifuged at 15,000 rpm/20 min using a bench top centrifuge (Model CR 4-12, Jouan Inc., Winchester, VA, USA). Following removal of the supernatant, the pellet was washed in fresh Middlebrook 7H9GC broth and re-suspended in fresh supplemented MB (10 mL). The turbidity was adjusted to match McFarland standard No. 1 (3 × 10^8 cfu) with MB broth. A further 1:20 dilution of the culture was then performed in MB broth. The antimicrobial susceptibility of the mycobacterial species was investigated in a 96-well plate format. In these experiments, sterile deionised water (300 µL) was added to all outer-perimeter wells of the plates to minimize evaporation of the medium in the test wells during incubation. Each evaluated compound (100 µL) was incubated with each of the mycobacterial species (100 µL). Dilutions of each compound were prepared in duplicate. For all synthesized compounds, final concentrations ranged from 1,000 µg/mL to 8 µg/mL. All compounds were prepared in DMSO and subsequent dilutions were made in supplemented MB. The plates were sealed with parafilm and incubated at 37 °C, for 11 days in the case of M. avium paratuberculosis. Following incubation, a 10% addition of alamarBlue (AbD Serotec, Kidlington, UK) was mixed into each well and readings at 570 nm and 600 nm were taken, initially for background subtraction and subsequently after 24 h re-incubation. The background subtraction is necessary for strongly coloured compounds, where the colour may interfere with the interpretation of any colour change. For non-interfering compounds, a blue colour in the well was interpreted as an absence of growth and a pink colour was scored as growth. The minimum inhibitory concentrations (MICs) were initially defined as the lowest concentration which prevented a visual colour change from blue to pink.
The MICs were defined as the lowest concentration of the compound at which no visible bacterial growth was observed. The MIC value is routinely and widely used in bacterial assays and is a standard detection limit according to the Clinical and Laboratory Standards Institute (CLSI). Isoniazid (Sigma-Aldrich) was used as reference antimycobacterial drug.

[4] = tested on: Mycobacterium marinum CAMP 5644; experiment: In vitro antimycobacterial evaluation (broth dilution MIC); assay type: cell-based; details: for MIC: Mycobacterium marinum, CAMP5644, 504 h, M. marinum CAMP 5644, 21 days, 28 °C
[5] = tested on: methicillin-resistant Staphylococcus aureus (MRSA) 63718; experiment: In vitro antibacterial susceptibility testing (broth dilution MIC); assay type: cell-based; details: clinical isolate MRSA 63718, 24 h, 37 °C
Protocol: (§1) The synthesized compounds were evaluated for in vitro antibacterial activity against representatives of multidrug-resistant bacteria, clinical isolates of methicillin-resistant Staphylococcus aureus (MRSA) 63718, SA 630 and SA 3202 that were obtained from the National Institute of Public Health, Prague, Czech Republic. Staphylococcus aureus ATCC 29213 was used as a reference and quality control strain. Ampicillin (Sigma-Aldrich) was used as the standard. Prior to testing, each strain was passaged onto nutrient agar (Oxoid, Hampshire, UK) with 5% of bovine blood, and bacterial inocula were prepared by suspending a small portion of bacterial colony in sterile phosphate buffered saline (pH 7.2–7.3). The cell density was adjusted to 0.5 McFarland units using a densitometer (Densi-La-Meter, LIAP, Riga, Latvia). The final inoculum was made by 1:20 dilution of the suspension with the Mueller-Hinton broth (MH broth). […] The final concentrations of the evaluated compounds ranging from 256 μg/mL to 0.008 μg/mL. The broth dilution micro-method modified according to NCCLS guidelines in MH broth was used to determine the minimum inhibitory concentration (MIC). Drug-free controls, sterility controls and controls consisted of MH broth and DMSO alone were included. The determination of results was performed visually after 24 h of static incubation in the darkness at 37 °C in an aerobic atmosphere. The MICs were defined as the lowest concentration of the compound at which no visible bacterial growth was observed.

[6] = tested on: methicillin-resistant Staphylococcus aureus SA 3202; experiment: as above; assay type: cell-based; details: MRSA, clinical isolate SA 3202, 24 h, 37 °C, read-out: MIC MRSA 3202
Protocol: as §1

[7] = tested on: methicillin-resistant Staphylococcus aureus SA 630; experiment: as above; assay type: cell-based; details: MRSA, clinical isolate SA 630, 24 h, 37 °C
Protocol: as §1

[8] = tested on: Staphylococcus aureus ATCC 29213; experiment: as above; assay type: cell-based; details: ATCC29213; Staphylococcus aureus ATCC 29213, 24 h, 37 °C
Protocol: as §1

SMILES | pIC50 [1] | log k [2] | MIC (M. smegmatis ATCC 700084) [µM] | MIC (M. kansasii DSM 44162) [µM] | MIC [3] [µM] | MIC [4] [µM] | MIC [5] [µM] | MIC [6] [µM] | MIC [7] [µM] | MIC [8] [µM] | fold higher activity against M. marinum than isoniazid ([4]; ratio of MIC to isoniazid)
CN(C)C(=O)Nc1ccc(Cl)c(Cl)c1 [DCMU, 3-(3,4-dichlorophenyl)-1,1-dimethylurea, reference compound] | ~5.72 and 5.72 | 0.8801 |  |  |  |  |  |  |  |  | 
O=C(Nc1ccccc1F)c1c(O)ccc2ccccc12 [Compound 4a, N-(2-fluorophenyl)-2-hydroxynaphthalene-1-carboxamide] | 3.61 | 0.5664 | 228 (≈ 64.1 µg/mL) | 114 (≈ 32.1 µg/mL) | 203 (≈ 57.1 µg/mL) | 228 (≈ 64.1 µg/mL) | 455 (≈ 128 µg/mL) | 455 (≈ 128 µg/mL) | 455 (≈ 128 µg/mL) | 228 (≈ 64.1 µg/mL) | 
O=C(Nc1cccc(F)c1)c1c(O)ccc2ccccc12 [Compound 4b, N-(3-fluorophenyl)-2-hydroxynaphthalene-1-carboxamide] | 3.67 | 0.5025 | > 910 | 114 (≈ 32.1 µg/mL) | > 889 | > 910 | > 910 | 228 (≈ 64.1 µg/mL) | > 910 | 228 (≈ 64.1 µg/mL) | 
Cc1ccccc1NC(=O)c1c(O)ccc2ccccc12 [Compound 3a, 2-Hydroxy-N-(2-methylphenyl)naphthalene-1-carboxamide] | 3.23 | 0.7962 |  | 115 (≈ 31.9 µg/mL) | 451 (≈ 125 µg/mL) | 231 (≈ 64.1 µg/mL) |  |  |  |  | 
NNC(=O)c1ccncc1 [INH, isoniazid, reference compound] |  | 0.0141 |  |  | > 1820 | 467 (≈ 64 µg/mL) |  |  |  |  | 
COc1ccc(NC(=O)c2c(O)ccc3ccccc23)cc1 [Compound 2c, 2-Hydroxy-N-(4-methoxyphenyl)naphthalene-1-carboxamide] |  | 0.6342 |  | 218 (≈ 63.9 µg/mL) | 852 (≈ 250 µg/mL) | 109 (≈ 32 µg/mL) |  |  |  |  | 
O=C(Nc1ccc(F)cc1)c1c(O)ccc2ccccc12 [Compound 4c, N-(4-fluorophenyl)-2-hydroxynaphthalene-1-carboxamide] | 3.50 | 0.5568 | > 910 | > 910 | > 889 | > 910 | > 910 | > 910 | > 910 | > 910 | 
O=C(Nc1ccc(Br)cc1)c1c(O)ccc2ccccc12 [Compound 6c, N-(4-bromophenyl)-2-hydroxynaphthalene-1-carboxamide] | 3.99 | 0.8790 | 187 (≈ 64 µg/mL) | 93.5 (≈ 32 µg/mL) | 175 (≈ 59.9 µg/mL) | 187 (≈ 64 µg/mL) | 187 (≈ 64 µg/mL) | 94.1 (≈ 32.2 µg/mL) | 47 (≈ 16.1 µg/mL) | 47 (≈ 16.1 µg/mL) | 
O=C(Nc1cccc(Cl)c1)c1c(O)ccc2ccccc12 [Compound 5b, N-(3-chlorophenyl)-2-hydroxynaphthalene-1-carboxamide] | 4.10 | 0.7904 | 215 (≈ 64 µg/mL) | 53.7 (≈ 16 µg/mL) | 840 (≈ 250 µg/mL) | > 860 | > 860 | 107 (≈ 31.9 µg/mL) | > 860 | > 860 | 
O=C(Nc1cccc(Br)c1)c1c(O)ccc2ccccc12 [Compound 6b, N-(3-bromophenyl)-2-hydroxynaphthalene-1-carboxamide] | 4.21 | 0.8595 | > 748 | 46.7 (≈ 16 µg/mL) | 731 (≈ 250 µg/mL) | > 748 | > 748 | > 748 | > 748 | > 748 | 
COc1cccc(NC(=O)c2c(O)ccc3ccccc23)c1 [Compound 2b, 2-Hydroxy-N-(3-methoxyphenyl)naphthalene-1-carboxamide] | 3.17 | 0.6582 | 218 (≈ 63.9 µg/mL) | 109 (≈ 32 µg/mL) | 426 (≈ 125 µg/mL) | 218 (≈ 63.9 µg/mL) |  | 218 (≈ 63.9 µg/mL) |  |  | 
Cc1ccc(NC(=O)c2c(O)ccc3ccccc23)cc1 [Compound 3c, 2-Hydroxy-N-(4-methylphenyl)naphthalene-1-carboxamide] | 3.06 | 0.3751 |  | 115 (≈ 31.9 µg/mL) | 451 (≈ 125 µg/mL) | 115 (≈ 31.9 µg/mL) |  |  |  | 231 (≈ 64.1 µg/mL) | 
Cc1cccc(NC(=O)c2c(O)ccc3ccccc23)c1 [Compound 3b, 2-Hydroxy-N-(3-methylphenyl)naphthalene-1-carboxamide] | 3.43 | 0.4593 | 231 (≈ 64.1 µg/mL) | 115 (≈ 31.9 µg/mL) | 451 (≈ 125 µg/mL) | 231 (≈ 64.1 µg/mL) |  | 231 (≈ 64.1 µg/mL) | 231 (≈ 64.1 µg/mL) | 231 (≈ 64.1 µg/mL) | 
O=C(Nc1ccc([N+](=O)[O-])cc1)c1c(O)ccc2ccccc12 [Compound 8c, 2-Hydroxy-N-(4-nitrophenyl)naphthalene-1-carboxamide] | 4.43 | 0.6260 |  | 415 (≈ 128 µg/mL) | 811 (≈ 250 µg/mL) | ~52 (≈ 16 µg/mL) |  | 104 (≈ 32.1 µg/mL) |  |  | about 9 fold
CC1(C)S[C@@H]2[C@H](NC(=O)[C@H](N)c3ccccc3)C(=O)N2[C@H]1C(=O)O [APC, ampicillin, reference compound] |  | 0.4337 |  |  |  |  | > 45.8 | > 45.8 | > 45.8 | 5.7 (≈ 1.99 µg/mL) | 
